Assay [1] concerns the target Neuronal acetylcholine receptor; alpha4/beta2 (Rattus norvegicus, UniProt P09483+P12390). As to the kind of experiment: Displacement of [3H]cytisine from alpha4beta2 nicotinic acetylcholine receptor in rat brain minus cerebellum membrane. It counts as tissue-based. Background: Loss of bound radioactivity is the signal in a displacement assay; it reports binding, not function.

Assay [2] concerns the target Neuronal acetylcholine receptor subunit alpha-7 (Rattus norvegicus, UniProt Q05941). Description: Displacement of [3H]A585539 from alpha7 nicotinic acetylcholine receptor in rat brain minus cerebellum membrane. It counts as tissue-based.
The species entered for another assay is Rattus norvegicus. As to the kind of experiment: Selectivity ratio of Ki for alpha7 nicotinic acetylcholine receptor to Ki for alpha4beta2 nicotinic acetylcholine receptor in rat brain minus cerebellum membrane. It counts as tissue-based.
In assay [3] the target is T1, Neuronal acetylcholine receptor; alpha4/beta2 (Homo sapiens, UniProt P17787+P43681). Description: Agonist activity at human recombinant alpha4beta2 nicotinic acetylcholine receptor expressed in HEK293 cells assessed as changes in intracellular calcium level by FLIPR. It counts as functional, cell-based. (Calcium assays in cells follow changes in intracellular calcium, usually with a dye or a luminescent sensor.)
T1 sequence (P17787 whole entry): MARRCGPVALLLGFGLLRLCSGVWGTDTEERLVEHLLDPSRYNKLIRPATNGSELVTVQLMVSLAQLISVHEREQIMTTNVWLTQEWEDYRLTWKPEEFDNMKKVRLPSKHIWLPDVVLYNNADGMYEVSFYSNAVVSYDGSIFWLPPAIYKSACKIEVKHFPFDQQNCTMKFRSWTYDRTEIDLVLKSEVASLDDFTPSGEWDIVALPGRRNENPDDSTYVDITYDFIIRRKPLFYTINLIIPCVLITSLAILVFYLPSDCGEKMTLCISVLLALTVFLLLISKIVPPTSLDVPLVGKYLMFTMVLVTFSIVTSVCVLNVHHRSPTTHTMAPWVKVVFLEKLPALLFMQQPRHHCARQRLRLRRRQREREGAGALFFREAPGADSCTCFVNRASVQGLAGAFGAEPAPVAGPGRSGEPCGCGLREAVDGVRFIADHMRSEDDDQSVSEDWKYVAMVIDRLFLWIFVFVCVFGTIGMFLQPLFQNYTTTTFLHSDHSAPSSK
T1 sequence (P43681 whole entry): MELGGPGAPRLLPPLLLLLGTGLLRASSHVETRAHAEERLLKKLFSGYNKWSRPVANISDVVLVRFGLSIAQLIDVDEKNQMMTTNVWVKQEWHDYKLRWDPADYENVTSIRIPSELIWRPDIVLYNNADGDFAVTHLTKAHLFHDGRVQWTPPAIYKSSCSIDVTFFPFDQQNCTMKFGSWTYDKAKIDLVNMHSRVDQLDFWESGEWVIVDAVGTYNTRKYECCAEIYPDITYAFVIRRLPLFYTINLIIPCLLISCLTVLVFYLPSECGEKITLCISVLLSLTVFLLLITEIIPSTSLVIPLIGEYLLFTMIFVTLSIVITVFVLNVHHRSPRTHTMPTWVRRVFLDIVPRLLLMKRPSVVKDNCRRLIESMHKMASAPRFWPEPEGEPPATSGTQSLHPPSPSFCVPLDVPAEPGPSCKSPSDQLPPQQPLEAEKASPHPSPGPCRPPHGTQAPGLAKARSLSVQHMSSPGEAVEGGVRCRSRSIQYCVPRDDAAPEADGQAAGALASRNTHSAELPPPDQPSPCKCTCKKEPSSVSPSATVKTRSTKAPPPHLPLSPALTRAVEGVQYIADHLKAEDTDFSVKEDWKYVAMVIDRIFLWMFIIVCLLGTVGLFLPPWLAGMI

For assay [4], the target named is T1, Neuronal acetylcholine receptor; alpha4/beta2. Description: Agonist activity at human recombinant alpha4beta2 nicotinic acetylcholine receptor expressed in HEK293 cells assessed as changes in intracellular calcium level at 100 uM by FLIPR relative to nicotine. It counts as functional, cell-based.
Assay [5] addresses T2, Neuronal acetylcholine receptor subunit alpha-7 (Homo sapiens, UniProt P36544). Description: Agonist activity at human recombinant alpha7 nicotinic acetylcholine receptor expressed in xenopus laevis oocytes by parallel oocyte electrophysiological assay. It is filed as functional, cell-based.
Assay [6] has as its target T2, Neuronal acetylcholine receptor subunit alpha-7. Description: Agonist activity at human recombinant alpha7 nicotinic acetylcholine receptor expressed in xenopus laevis oocytes at 100 uM by parallel oocyte electrophysiological assay relative to acetylcholine. It is filed as functional, cell-based.

We go through 40 compounds from ChEMBL document CHEMBL1137790, “Octahydropyrrolo[3,4-c]pyrrole: a diamine scaffold for construction of either alpha4beta2 or alpha7-selective nicotinic acetylcholine receptor (nAChR) ligands. Substitutions that switch subtype selectivity” (J Med Chem, 2009).

pEC50, pKi: −log10 of the molar value.

Neuronal acetylcholine receptor; alpha4/beta2 (Rattus norvegicus, UniProt P09483+P12390), sequence (P09483 whole entry): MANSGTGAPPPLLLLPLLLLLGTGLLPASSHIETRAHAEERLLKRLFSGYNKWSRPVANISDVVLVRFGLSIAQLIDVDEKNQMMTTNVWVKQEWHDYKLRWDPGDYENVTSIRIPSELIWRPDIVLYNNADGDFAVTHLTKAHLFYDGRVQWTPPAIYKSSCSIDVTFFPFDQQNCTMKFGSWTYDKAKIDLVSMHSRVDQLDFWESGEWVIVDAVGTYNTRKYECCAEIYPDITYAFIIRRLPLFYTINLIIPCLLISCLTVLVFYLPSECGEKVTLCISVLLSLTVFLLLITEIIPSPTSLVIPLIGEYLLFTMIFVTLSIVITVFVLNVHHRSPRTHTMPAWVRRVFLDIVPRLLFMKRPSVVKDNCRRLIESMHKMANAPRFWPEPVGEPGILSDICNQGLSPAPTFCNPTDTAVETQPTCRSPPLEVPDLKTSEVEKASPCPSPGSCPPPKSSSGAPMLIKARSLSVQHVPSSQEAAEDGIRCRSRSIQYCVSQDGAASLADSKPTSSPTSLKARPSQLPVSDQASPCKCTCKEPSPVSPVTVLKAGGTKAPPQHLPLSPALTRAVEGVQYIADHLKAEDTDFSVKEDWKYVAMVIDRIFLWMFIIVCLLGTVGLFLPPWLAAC
Neuronal acetylcholine receptor; alpha4/beta2 (Rattus norvegicus, UniProt P09483+P12390), sequence (P12390 whole entry): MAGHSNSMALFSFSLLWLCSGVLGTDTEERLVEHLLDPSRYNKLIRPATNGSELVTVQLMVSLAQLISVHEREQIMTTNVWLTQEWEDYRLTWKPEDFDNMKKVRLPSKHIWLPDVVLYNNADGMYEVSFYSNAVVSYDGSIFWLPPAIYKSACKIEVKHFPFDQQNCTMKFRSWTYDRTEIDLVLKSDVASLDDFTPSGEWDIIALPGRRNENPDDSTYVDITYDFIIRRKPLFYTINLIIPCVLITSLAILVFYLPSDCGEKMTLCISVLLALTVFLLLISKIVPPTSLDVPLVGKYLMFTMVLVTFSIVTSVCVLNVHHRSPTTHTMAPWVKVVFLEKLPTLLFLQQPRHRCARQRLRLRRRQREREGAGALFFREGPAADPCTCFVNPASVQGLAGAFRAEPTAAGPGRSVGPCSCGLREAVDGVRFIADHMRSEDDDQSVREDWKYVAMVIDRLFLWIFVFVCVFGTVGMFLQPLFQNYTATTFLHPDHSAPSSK
T2 sequence (P36544 whole entry): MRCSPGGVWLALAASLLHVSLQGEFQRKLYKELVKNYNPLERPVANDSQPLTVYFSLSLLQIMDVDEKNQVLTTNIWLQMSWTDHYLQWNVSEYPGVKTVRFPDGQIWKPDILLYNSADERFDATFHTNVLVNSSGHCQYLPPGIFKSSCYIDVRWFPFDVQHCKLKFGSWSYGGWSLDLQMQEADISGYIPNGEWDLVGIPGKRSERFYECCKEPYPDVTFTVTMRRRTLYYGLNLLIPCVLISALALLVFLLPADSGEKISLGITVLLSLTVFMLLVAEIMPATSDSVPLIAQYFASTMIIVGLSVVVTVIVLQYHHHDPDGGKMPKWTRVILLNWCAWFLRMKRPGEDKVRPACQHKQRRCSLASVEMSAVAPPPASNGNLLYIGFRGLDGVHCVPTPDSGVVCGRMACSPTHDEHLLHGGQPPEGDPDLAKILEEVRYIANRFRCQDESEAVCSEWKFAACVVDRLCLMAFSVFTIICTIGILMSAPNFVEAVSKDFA
Neuronal acetylcholine receptor subunit alpha-7 (Rattus norvegicus, UniProt Q05941), sequence (Q05941 whole entry): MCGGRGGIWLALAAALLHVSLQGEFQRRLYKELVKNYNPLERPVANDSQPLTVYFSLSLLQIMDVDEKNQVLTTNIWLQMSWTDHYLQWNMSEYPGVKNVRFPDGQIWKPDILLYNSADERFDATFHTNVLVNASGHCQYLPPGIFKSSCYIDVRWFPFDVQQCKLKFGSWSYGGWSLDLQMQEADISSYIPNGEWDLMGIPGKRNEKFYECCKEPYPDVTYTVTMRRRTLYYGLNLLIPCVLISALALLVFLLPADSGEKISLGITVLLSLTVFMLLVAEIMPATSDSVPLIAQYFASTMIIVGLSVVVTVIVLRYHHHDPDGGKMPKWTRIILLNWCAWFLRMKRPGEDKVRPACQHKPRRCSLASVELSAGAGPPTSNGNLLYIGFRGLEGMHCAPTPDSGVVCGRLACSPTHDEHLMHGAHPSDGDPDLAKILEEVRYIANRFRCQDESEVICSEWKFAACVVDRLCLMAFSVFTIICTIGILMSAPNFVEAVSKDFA

Turning to `CN1C[C@@H]2CN(c3ccc(-c4ccc(O)cc4)nn3)C[C@@H]2C1`, the figures for the negative-log Ki (pKi) in assay [1] and in assay [2] were below 5.00 and 8.28, respectively. Further, in the assay listed under Rattus norvegicus, the Ratio Ki was above 1800.

For the compound `CN1C[C@@H]2CN(c3ccc(-c4ccccc4)nn3)C[C@@H]2C1`, the pKi in assay [1] is below 4.00; in assay [2], 7.97. The Ratio Ki in the assay filed under Rattus norvegicus is above 9200. Further, the figures for the pEC50 in assay [3] and in assay [5] were below 4.00 and 5.37, respectively. For the same compound, the results for the Activity in assay [4] and in assay [6] were below 10% and 52%, respectively.

Consider `CCN1C[C@@H]2CN(c3ccc(-c4ccccc4)nn3)C[C@@H]2C1`, for which the negative-log Ki (pKi) is below 4.00 in assay [1] and 6.48 in assay [2]. The Ratio Ki in the assay filed under Rattus norvegicus was above 300.

`CN1C[C@@H]2CN(c3ccc(-c4ccccc4)cc3)C[C@@H]2C1`: the results for the pKi in assay [1] and in assay [2] were below 4.00 and 7.92, respectively. For the same compound, the Ratio Ki in the assay listed under Rattus norvegicus was above 8300.

Turning to `CN1C[C@@H]2CN(c3ccc(Cl)nc3)C[C@@H]2C1`, the values for the pKi in assay [1] and in assay [2] were 7.42 and below 5.00, respectively. Besides, in the assay listed under Rattus norvegicus, the Ratio Ki is above 260.

With `CC(C)Oc1cncc(N2C[C@H]3CNC[C@H]3C2)c1`, the pKi in assay [1] is 10.29; in assay [2], below 5.00. Also, in the assay listed under Rattus norvegicus, the Ratio Ki is above 200000.

Take `c1ncc(N2C[C@H]3CNC[C@H]3C2)cc1N1CCOCC1`: the pKi is 7.33 in assay [1] and below 5.00 in assay [2]. In addition, in the assay listed under Rattus norvegicus, the Ratio Ki is above 210.

As for `c1cc(N2C[C@H]3CNC[C@H]3C2)ccn1`, the pKi in assay [1] and in assay [2] was below 5.00 in each case.

As for `CCCOc1cncc(N2C[C@H]3CNC[C@H]3C2)c1`, the pKi was 10.39 in assay [1] and below 5.00 in assay [2]. Besides, the Ratio Ki in the assay listed under Rattus norvegicus is above 240000.

With `c1ccc(-c2cncc(N3C[C@H]4CNC[C@H]4C3)c2)cc1`, the pKi in assay [1] is 9.80; in assay [2], 5.34. Further, the Ratio Ki in the assay listed under Rattus norvegicus was found to be 28000. The pEC50 in assay [3] and in assay [5] was below 4.00 throughout. Further, the Activity in assay [4] and in assay [6] was below 10% throughout.

For `Cc1ccc(-c2ccc(N3C[C@H]4CN(C)C[C@H]4C3)nn2)cc1`, the pKi is below 4.00 in assay [1] and 7.94 in assay [2]. Moreover, the Ratio Ki in the assay filed under Rattus norvegicus was above 8600.

For the compound `COc1cccc(-c2ccc(N3C[C@H]4CN(C)C[C@H]4C3)cn2)c1`, the pKi in assay [1] was below 4.00; in assay [2] it was 8.30. Also, in the assay filed under Rattus norvegicus, the Ratio Ki is above 2000.

With `CN1C[C@@H]2CN(c3ccc(-c4cccc([N+](=O)[O-])c4)nc3)C[C@@H]2C1`, the pKi in assay [1] was 5.59; in assay [2], 7.52. Besides, the Ratio Ki in the assay listed under Rattus norvegicus was determined as 87.

Consider `Brc1cncc(N2C[C@H]3CNC[C@H]3C2)c1`, for which the negative-log Ki (pKi) was 10.22 in assay [1] and 7.18 in assay [2]. Moreover, the Ratio Ki in the assay filed under Rattus norvegicus worked out at 1100.

With `CN1C[C@@H]2CN(c3ccc(-c4cccc(-c5ccccc5)c4)nc3)C[C@@H]2C1`, the figures for the pKi in assay [1] and in assay [2] were 5.01 and 7.36, respectively. For the same compound, in the assay filed under Rattus norvegicus, the Ratio Ki is 220.

As for `CN1C[C@@H]2CN(c3ccc(-c4cccc(O)c4)nn3)C[C@@H]2C1`, the pKi was 4.68 in assay [1] and 8.10 in assay [2]. Further, the Ratio Ki in the assay filed under Rattus norvegicus was found to be 2660.

As for `C[N+]1(C)C[C@H]2CN(c3ccc(Cl)nc3)C[C@H]2C1`, the pKi in assay [1] was 6.68; in assay [2], 6.47. For the same compound, the Ratio Ki in the assay filed under Rattus norvegicus was 1.6.

With `Cc1ccccc1-c1ccc(N2C[C@H]3CN(C)C[C@H]3C2)nn1`, the pKi in assay [1] is below 5.00; in assay [2], 6.16. In addition, the Ratio Ki in the assay listed under Rattus norvegicus is above 14.

With `c1ccc(COc2cncc(N3C[C@H]4CNC[C@H]4C3)c2)cc1`, the pKi in assay [1] is 10.24; in assay [2] it was below 5.00. For the same compound, in the assay filed under Rattus norvegicus, the Ratio Ki is above 170000.

With `c1ccc(-c2ccc(N3C[C@H]4CNC[C@H]4C3)cc2)cc1`, the pKi is below 5.00 in assay [1] and 7.55 in assay [2]. In the assay listed under Rattus norvegicus, the Ratio Ki was above 350.

With `CCOc1cncc(N2C[C@H]3CNC[C@H]3C2)c1`, the pKi in assay [1] was 10.46; in assay [2], 5.84. Besides, the Ratio Ki in the assay filed under Rattus norvegicus was determined as 41000. Besides, the pEC50 was 6.43 in assay [3] and below 4.00 in assay [5]. In addition, the Activity in assay [4] came out at 118%; in assay [6], 37%.

`CN1C[C@@H]2CN(c3ccc(-c4ccc5[nH]ccc5c4)nn3)C[C@@H]2C1`: the negative logarithm of the Ki (pKi) was below 4.00 in assay [1] and 9.62 in assay [2]. The Ratio Ki in the assay listed under Rattus norvegicus was above 400000. The pEC50 in assay [3] was below 4.00; in assay [5], 6.49. Moreover, the Activity in assay [4] was below 10%; in assay [6] it was 87%.

With `c1ccc(-c2ccc(N3C[C@H]4CNC[C@H]4C3)nn2)cc1`, the pKi was 5.27 in assay [1] and 7.76 in assay [2]. Besides, the Ratio Ki in the assay filed under Rattus norvegicus is 300. The pEC50 was below 4.00 in assay [3] and 5.94 in assay [5]. For the same compound, the Activity is below 10% in assay [4] and 29% in assay [6].

On to `CN1C[C@@H]2CN(c3cncc(-c4ccccc4)c3)C[C@@H]2C1`, for which the pKi in assay [1] was 7.29; in assay [2] it was below 5.00. In addition, the Ratio Ki in the assay listed under Rattus norvegicus is above 190.

Take `Oc1cncc(N2C[C@H]3CNC[C@H]3C2)c1`: the pKi is 9.12 in assay [1] and below 5.00 in assay [2]. In addition, the Ratio Ki in the assay filed under Rattus norvegicus is above 13000.

On to `Cc1cc(C)cc(-c2ccc(N3C[C@H]4CN(C)C[C@H]4C3)nn2)c1`, for which the pKi is below 4.00 in assay [1] and below 5.00 in assay [2].

With `COc1ccc(-c2ccc(N3C[C@H]4CN(C)C[C@H]4C3)nn2)cc1`, the pKi in assay [1] is below 4.00; in assay [2], 7.66. The Ratio Ki in the assay listed under Rattus norvegicus was above 4500.

`CN1C[C@@H]2CN(c3ccc(-c4ccccc4)cn3)C[C@@H]2C1`: the negative logarithm of the Ki (pKi) in assay [1] was below 4.00; in assay [2], 7.77. In the assay filed under Rattus norvegicus, the Ratio Ki is above 6000.

In the case of `Cc1cccc(-c2ccc(N3C[C@H]4CN(C)C[C@H]4C3)cn2)c1`, the figures for the pKi in assay [1] and in assay [2] were 6.12 and 8.17, respectively. Moreover, the Ratio Ki in the assay listed under Rattus norvegicus turned out to be 112.

Turning to `c1ccc(-c2ccc(N3C[C@H]4CNC[C@H]4C3)nc2)cc1`, the pKi in assay [1] was below 4.00; in assay [2], 7.52. Besides, in the assay filed under Rattus norvegicus, the Ratio Ki is above 3300.

On to `Cc1cccc(-c2ccc(N3C[C@H]4CN(C)C[C@H]4C3)nn2)c1`, for which the pKi was below 4.00 in assay [1] and 8.35 in assay [2]. Further, the Ratio Ki in the assay filed under Rattus norvegicus is above 22000.

On to `Brc1ccc(N2C[C@H]3CNC[C@H]3C2)cn1`, for which the pKi in assay [1] was 9.55; in assay [2], 6.54. For the same compound, in the assay filed under Rattus norvegicus, the Ratio Ki turned out to be 1000.

In the case of `C[N+]1(C)C[C@H]2CN(c3ccc(-c4ccccc4)nn3)C[C@H]2C1`, the negative logarithm of the Ki (pKi) in assay [1] is below 5.00; in assay [2], 8.22. In the assay filed under Rattus norvegicus, the Ratio Ki was above 1600.

For the compound `CN1C[C@@H]2CN(c3cccnc3)C[C@@H]2C1`, the values for the pKi in assay [1] and in assay [2] were 7.59 and 5.80, respectively. The Ratio Ki in the assay filed under Rattus norvegicus amounted to 61.

Turning to `COc1cncc(N2C[C@H]3CNC[C@H]3C2)c1`, the pKi in assay [1] was 10.09; in assay [2], 6.62. In the assay filed under Rattus norvegicus, the Ratio Ki came to 2900.

For the compound `CN1C[C@@H]2CN(c3ccc(-c4ccccc4)nc3)C[C@@H]2C1`, the results for the pKi in assay [1] and in assay [2] were 4.55 and 8.02, respectively. The Ratio Ki in the assay filed under Rattus norvegicus came to 0.0003.

Consider `c1cncc(N2C[C@H]3CNC[C@H]3C2)c1`, for which the pKi is 9.92 in assay [1] and 7.29 in assay [2]. For the same compound, the Ratio Ki in the assay filed under Rattus norvegicus was 420. The pEC50 in assay [3] was 7.40; in assay [5] it was 5.35. Besides, the Activity in assay [4] stood at 146%; in assay [6] it was 129%.

Consider `c1ccc(N2C[C@H]3CNC[C@H]3C2)nc1`, for which the pKi is 6.59 in assay [1] and below 5.00 in assay [2]. In addition, in the assay listed under Rattus norvegicus, the Ratio Ki was above 38.

As to `c1ccc(-c2ccc(N3C[C@H]4CNC[C@H]4C3)cn2)cc1`, the pKi in assay [1] was 7.02; in assay [2] it was 8.08. Moreover, the Ratio Ki in the assay filed under Rattus norvegicus came to 0.09.

For `Clc1ccc(N2C[C@H]3CNC[C@H]3C2)cn1`, the pKi is 9.70 in assay [1] and 6.74 in assay [2]. For the same compound, the Ratio Ki in the assay filed under Rattus norvegicus was found to be 900.

What is called pKi is the negative decadic logarithm of the Ki, by convention in mol/L. A low value points to a high Ki. Usually pEC50 stands for the EC50 on a negative log10 scale, so that one unit is a factor of ten.
